Laboratory results from paper PMC2866097 (Meat science, 2010).

B1: bovine slow myosin subfragment 1 (slow S1, masseter) (Bos taurus) (protein)
chain: MVDAEMAAFGEAAPYLRKSEKERLEAQTRPFDLKKDVFVPDDKEEFVKATILSREGGKVTAETEHGKTVTVKEDQVLQQNPPKFDKIEDMAMLTFLHEPAVLYNLKERYASWMIYTYSGLFCVTINPYKWLPVYNAEVVAAYRGKKRSEAPPHIFSISDNAYQYMLTDRENQSILITGESGAGKTVNTKRVIQYFAVIAAIGDRSKKEQATGKGTLEDQIIQANPALEAFGNAKTVRNDNSSRFGKFIRIHFGATGKLASADIETYLLEKSRVIFQLKAERDYHIFYQILSNKKPELLDMLLITNNPYDYAFISQGETTVASIDDAEELMATDNAFDVLGFTTEEKNSMYKLTGAIMHFGNMKFKLKQREEQAEPDGTEEADKSAYLMGLNSADLLKGLCHPRVKVGNEYVTKGQNVQQVVYAKGALAKAVYERMFNWMVTRINATLETKQPRQYFIGVLDIAGFEIFDFNSFEQLCINFTNEKLQQFFNHHMFVLEQEEYKKEGIEWEFIDFGMDLQACIDLIEKPMGIMSILEEECMFPKATDMTFKAKLFDNHLGKSSNFQKPRNIKGKPEAHFSLIHYAGTVDYNIIGWLQKNKDPLNETVVDLYKKSSLKMLSSLFANYAGFDTPIEKGKGKAKKGSSFQTVSALHRENLNKLMTNLRSTHPHFVRCIIPNETKSPGVIDNPLVMHQLRCNGVLEGIRICRKGFPNRILYGDFRQRYRILNPAAIPEGQFIDSRKGAEKLLGSLDIDHNQYKFGHTKVFFKAGLLGLLEEMRDERLSRIITRIQAQSRGVLSRMEFKKLLERRDSLLIIQWNIRAFMGVKNWPWMKLYFKIKPLL

Experiments:
[1] = biological target: bovine slow myosin subfragment 1 (slow S1, masseter) (Bos taurus, UniProt Q9BE39); assay: biochemical
[2] = system: bovine fast myosin subfragment 1 (fast S1, cutaneous trunci)
purified protein = substrate: O=P(O)(O)OP(=O)(O)OP(=O)(O)O; assay: purified protein; conditions: Mg2+

bovine slow myosin subfragment 1 (slow S1, masseter), sequence (P85100 2-199 partner, one chain of several): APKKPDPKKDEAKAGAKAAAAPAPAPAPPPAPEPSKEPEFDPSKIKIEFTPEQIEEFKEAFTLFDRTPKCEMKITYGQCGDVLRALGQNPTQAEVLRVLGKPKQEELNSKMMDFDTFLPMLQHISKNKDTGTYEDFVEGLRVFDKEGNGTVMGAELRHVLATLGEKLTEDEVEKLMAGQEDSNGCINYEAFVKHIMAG

| Molecule | Ki [1] [µM] | Ki [2] [µM] | Km (purified protein) [µM] |
| --- | --- | --- | --- |
| O=P(O)(O)OP(=O)(O)O [PPi, pyrophosphate] | 18 ± 1.8 | 88 ± 6.9 | – |
| B1 | – | – | 380 ± 130 |
